Measured values reported in paper PMC5923390, “Further New Diterpenoids as PTP1B Inhibitors from the Xisha Soft Coral Sinularia polydactyla” (Marine Drugs, 2018).
pIC50: −log10 of the molar value. Values joined by “and” are separate entries in the source; they are usually repeats but may differ in a detail not shown here. Identical values can stand only once.

Target: T1, recombinant PTP1B catalytic domain (Homo sapiens, UniProt P18031)
T1 construct: Recombinant PTP1B catalytic domain was expressed and purified according to a previous report; made in house
T1 sequence (P18031 3-277 limits assumed): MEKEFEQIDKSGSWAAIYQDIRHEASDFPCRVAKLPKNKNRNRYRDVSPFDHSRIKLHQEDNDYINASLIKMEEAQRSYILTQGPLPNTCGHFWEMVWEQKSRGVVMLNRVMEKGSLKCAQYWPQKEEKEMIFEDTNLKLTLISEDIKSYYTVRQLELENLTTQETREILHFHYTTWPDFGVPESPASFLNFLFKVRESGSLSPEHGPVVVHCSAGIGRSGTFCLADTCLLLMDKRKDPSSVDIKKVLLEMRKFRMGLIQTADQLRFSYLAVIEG
Experiment: PTP1B inhibitory activity assay (pNPP hydrolysis)
Assay type: biochemical
Settings: for PTP1B inhibitory activity (in words): in vitro, pNPP hydrolysis; for pIC50: pNPP 2 mmol/L, 30 nmol/L recombinant PTP1B, MOPs pH 6.5, 30 °C, absorbance 405 nm, read-out: IC50 against PTP1B
Protocol: Recombinant PTP1B catalytic domain was expressed and purified according to a previous report. The enzymatic activities of the PTP1B catalytic domain were determined at 30 °C by monitoring the hydrolysis of pNPP. The dephosphorylation of pNPP generated product pNP, which was monitored at an absorbance of 405 nm by the EnVision multi label plate reader (Perkin Elmer Life Sciences, Boston, MA). In an atypical 100 µL assay mixture containing 50 mmol/L 3-[N-morpholino] propanesulfonic acid (MOPs), pH 6.5, 2 mmol/L pNPP, and 30 nmol/L recombinant PTP1B, activities were continuously monitored and the initial rate of hydrolysis was determined using the early linear region of the enzymatic reaction kinetic curve. The IC50 was calculated with Prism 4 software (Graphpad, San Diego, CA).

Row | Compound | PTP1B inhibitory activity (in words) | pIC50
1 | CC1=CC=C(C(C)C)C(O)C(O)C(C)=CCCC(C)=CCC1 (centres unmarked) [Compound 10, sarcophytol B] | inactive | 
2 | C=C1CCC=C(C)C(OC(C)=O)C(OC(C)=O)C(C(C)C)=CC2C(C)=CCC12 (centres unmarked) [Compound 9, sinulacetate] | promising inhibitory activity | 4.29
3 | CC(=CC=CC(C)(C)O)C1CCC2(C)CCC=C(C)C2C1 (centres unmarked) [Compound 8, sinupol] | promising inhibitory activity | 4.19
4 | C=C[C@@]1(C)CC[C@H](/C(C)=C/C=C/C(C)(C)OC)C[C@@H]1C(=C)C [Compound 5, lobatetraene] | inactive | 
5 | C=C[C@@]1(C)CC[C@H](/C(C)=C/C=C/C(C)(C)O)C[C@@H]1C(=C)C [Compound 6, fuscol] | inactive | 
6 | CC1=CC[C@@H](O)[C@@]2(C)CC[C@H](/C(C)=C/C=C/C(C)(C)O)C[C@H]12 [Compound 7] |  | 4.12 and 4.14
